The text below walks through data of publication PMC8282797, “Strictly regulated agonist-dependent activation of AMPA-R is the key characteristic of TAK-653 for robust synaptic responses and cognitive improvement” (Scientific Reports, 2021).

For assay [1], the system named is MK-801-induced working memory deficit in rats. Description: Radial arm maze (RAM) test, MK-801-induced working memory deficit. In kind it is in vivo, rat. The settings on record: given 0.5 h before MK-801 0.08 mg/kg, s.c. On the procedure: RAM tests were performed using 9-week-old male Long-Evans rats as previously described with a minor modification. Each arm was 50 cm long, 10 cm wide and 40 cm high, and the maze was elevated 50 cm above the floor. Long-Evans rats were food-restricted to 85% of free-feeding body weight throughout the experimental period. Rats were well trained to collect pellets placed on the edge of each arm. The learning criterion for the testing session was defined as 2 errors or fewer for 2 consecutive days. In the testing session, each rat was placed on the maze facing the fixed arm at the start of the trial. The entry of rats into each arm was recorded in sequence until all pellets in the 8 arms were consumed, or 5 min had elapsed. […] Thirty min after dosing of vehicle or MK-801, rats were placed on the maze. Details are described in the Supplementary Information.
The experiment was performed using 9-week-old male Long-Evans rats as described previously (Zajaczkowski et al., 1996) with a minor modification. Each arm was 50 cm long, 10 cm wide and 40 cm high, and the maze was elevated 50 cm above the floor. After being fasted for 24 h, male Long-Evans rats were food-restricted to 85% of free-feeding body weight on the first day of exposure to the maze and throughout the experimental period. The experiment consists of two sessions, training and testing session. In the training session, rats were habituated to the maze and then trained. Reinforcement consisted of 3 food pellets (45 mg each) in the food cup was used. On the first day of habituation to the maze, reinforcements were placed near the entrance and at the mid-point of each arm. Three rats were placed on the maze at one time and allowed to explore and consume the pellets for 8 min. On the second day of habituation, each rat was placed on the maze and allowed 5 min to consume the pellets placed at the mid-point and in the food cup at the end of each arm. From the third day, reinforcement was placed in the food cup at the end of each arm. Rats were well trained to collect pellets placed on the edge of each arm. The learning criterion for the testing session was defined as 2 errors or less for two consecutive days. In the previous day of the testing session, baseline level of performance was qualified to confirm that rats completed collecting all pellets placed in the 8 arms with two errors or less. In the testing session, each rat was placed on the maze facing away from the experimenter and facing the fixed arm at the start of the trial. The entry of rats into each arm was recorded in sequence. Rats were allowed to explore until all pellets in the 8 arms were consumed, or 5 min had elapsed. Entry into an arm previously chosen was counted as an error. […] […] Thirty min after dosing of vehicle or MK-801, rats were placed on the maze. Data were indicated as the mean ± SEM in the testing session.

Assay [2] concerns AMPA-R. Description: Ca2+ influx assay using rat primary hippocampal neurons. In kind it is cell-based. On the procedure: Ca^2+ influx assay using primary neurons was performed as previously described. After 5 days of culture, the cells plated on poly-D-lysine coated 96-well plates (Corning Incorporated) at 2 × 10^4 or 5 × 10^4 cells/well were used for experiments with PF-04958242 or TAK-653, respectively. Fluorescent calcium indicator dye solution (Calcium4 assay Kit, Dojindo, Kumamoto, Japan) in Ca^2+ reaction buffer (DMEM, HEPES and BSA) containing Probenecid (Dojindo) was added and incubated for 60 min in 5% CO2 at 37 °C. After washing once, the relative increases in intracellular Ca^2+ levels stimulated by compounds in the presence and absence of AMPA were monitored. Details are described in the Supplementary Information.
Primary cultures of hippocampal neuronal cells were prepared from fetal Sprague-Dawley rats at 19 days of gestation. Rat embryos were decapitated and their whole brains were isolated. Hippocampi were dissected in ice-cold Hanks' Balanced Salt Solutions (HBSS) under a microscope and then dispersed into cells using a neural cell dispersion kit (Sumitomo Bakelite Co., Ltd., Tokyo, Japan). The dissociated cells were suspended in Neurobasal medium containing B27 supplement (Thermo Fisher Scientific Inc.), 2 mM L-glutamine (Lonza, Basel, Switzerland), 100 U/mL penicillin (Lonza), 100 μg/mL streptomycin (Lonza) and 20 μg/mL gentamicin sulfate (Lonza). The cells were plated on poly-D-lysine coated 96-well plates (Corning Incorporated) for Ca^2+ influx assay or on poly-L-lysine coated 96-well plates (Sumitomo Bakelite) for measurement of BDNF protein levels and cultured in a humidified CO2 incubator with 5% CO2 at 37°C.
After 5 days of culture, the cells at 2×10^4 or 5×10^4 cells/well were used for experiments with PF-04958242 or TAK-653, respectively. For TAK-653, after removal of culture medium, 75 µL of fluorescent calcium indicator dye solution (Calcium4 assay Kit, Dojindo, Kumamoto, Japan) in Ca^2+ reaction buffer (DMEM, 10 mM HEPES and 0.1% BSA) containing 1.25 mM Probenecid (Dojindo) was added and incubated for 60 min in 5% CO2 at 37°C and washed once using 75 µL of fluorescent calcium indicator dye solution. After addition of 75 µL of fluorescent calcium indicator dye solution to each well again, the relative increases in intracellular Ca^2+ levels by compounds in the presence and absence of 5 μM AMPA were monitored for 8.5 min by fluorometric imaging plate reader. Activity of the compound was defined as fluorescence intensity integrated over the entire period of measurement. Intensity of 0% was defined as activity in the presence of only DMSO, while 100% was defined as activity in the presence of 5 μM AMPA and 10 μM HBT1. For PF-04958242, after removal of culture medium, 90 µL of fluorescent calcium indicator dye solution (Calcium4 assay Kit, Dojindo) in Ca^2+ reaction buffer (DMEM, 20 mM HEPES and 0.1% BSA) containing 2.5 mM Probenecid (Dojindo) was added and incubated for 60 min in 5% CO2 at 37°C. After addition of 90 µL of fluorescent calcium indicator dye solution to each well again, the relative increases in intracellular Ca^2+ levels by compounds in the presence and absence of 1 μM AMPA were monitored for 2 min in a microplate reader (CellLux, PerkinElmer, Waltham, MA, USA). Activity of the compound was defined as fluorescence intensity integrated over the entire period of measurement. 100% was defined as activity in the presence of 1 μM AMPA and 10 μM HBT1, while intensity of 0% was defined as activity in the presence of 1 μM AMPA or only DMSO for potentiator effect or agonistic effect, respectively. EC50 values were calculated by logistic regression analysis.

The test system of assay [3] is naïve rats. Description: Novel object recognition (NOR) test. The assay is classed as in vivo, rat. The settings on record: p.o., rats. The method, then: NOR tests were performed using male Long-Evans rats at 6 weeks old as previously described, with some modifications. On day 1, rats were allowed to habituate to the empty test box (a gray-colored polyvinyl chloride box (40 × 40 × 50 cm)) for 10 min individually. Testing comprised two 3-min trials called the acquisition trial and the retention trial that were separated by 48 h inter-trial intervals (ITIs). On day 2, in the acquisition trial, rats were allowed to explore two identical objects (A1 and A2) for 3 min. On day 4, in the retention trial, rats were again allowed to explore a familiar object (A3) and a novel object (B) for 3 min. The object exploration was defined as rats' licking, sniffing or touching the object with forelimbs while sniffing. TAK-653 or AMPA was orally or intraperitoneally, respectively, 2 h or 0.5 h prior to the acquisition and the retention trials. The NDI was calculated using the following equation: novel object interaction/total interaction × 100 (%).

Turning to `CC(C)S(=O)(=O)N[C@H]1COC[C@H]1Oc1ccc(-c2ccc(C#N)s2)cc1` [PF-04958242, N-{(3S,4S)-4-[4-(5-cyano-2-thienyl)phenoxy]tetrahydrofuran-3-yl}propane-2-sulfonamide], the “Working memory in the RAM test” value in assay [1] is “did not improve”. Further, the “Agonistic effect: Ca2+ increase in the absence of AMPA” value in assay [2] is on record as “potently produced a Ca^2+ increase in the absence of AMPA”. Moreover, the “Dose improving visual learning and memory in NOR test” value in assay [3] is given as ≥ 0.1 mg/kg.
